Literature values in US20250281435A1, “CHEWABLE GUMMY CONTAINING BETA-HYDROXY BETA-METHYLBUTYRIC ACID (HMB)” (Concept Matrix Solutions, priority 2024, published 2025).

Conditions: oral ingestion

## CC(C)(O)CC(=O)O [HMB, 3-hydroxy-3-methylbutanoic acid]
  time of peak plasma concentration after ingestion: 1 to 2 h
